# Measurements: US20180194762A1 (Pharmacyclics LLC, priority 2017, published 2018)
# Columns and labels:
# Format in all cases: biochemical
# Btk = biological target: T1, Btk (Homo sapiens, UniProt Q06187); experiment: Btk in vitro inhibitory activity (one of Method A TR-FRET, Method B electrophoretic mobility shift, Method C radiometric filter binding); details: wild-type Btk; read-out: Btk-WT IC50
# T1 construct: purified from insect cells as a full-length construct containing a N-terminal 6X-His tag; His6 (N); made in house; host or cells: insect cells (Method C)
# T1 sequence (Q06187 whole entry): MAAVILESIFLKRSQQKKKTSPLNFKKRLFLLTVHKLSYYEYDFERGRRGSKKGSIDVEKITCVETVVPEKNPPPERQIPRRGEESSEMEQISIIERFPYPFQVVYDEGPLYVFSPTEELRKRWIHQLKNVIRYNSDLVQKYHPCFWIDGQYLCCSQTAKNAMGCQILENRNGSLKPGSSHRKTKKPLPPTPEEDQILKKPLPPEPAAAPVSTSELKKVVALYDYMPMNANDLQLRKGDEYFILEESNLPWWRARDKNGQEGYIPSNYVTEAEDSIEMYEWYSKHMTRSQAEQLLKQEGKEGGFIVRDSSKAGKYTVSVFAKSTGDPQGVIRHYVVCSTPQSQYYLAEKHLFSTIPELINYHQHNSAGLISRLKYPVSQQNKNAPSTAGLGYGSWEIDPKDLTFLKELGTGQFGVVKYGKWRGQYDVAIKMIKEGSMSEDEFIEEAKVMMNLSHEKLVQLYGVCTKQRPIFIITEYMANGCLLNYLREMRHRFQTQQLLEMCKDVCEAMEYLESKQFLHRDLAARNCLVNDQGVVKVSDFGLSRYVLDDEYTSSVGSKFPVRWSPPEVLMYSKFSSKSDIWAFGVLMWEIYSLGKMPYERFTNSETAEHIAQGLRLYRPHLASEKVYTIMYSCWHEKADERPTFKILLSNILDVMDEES
# How it was run: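 Method A: TR-FRET with 0.5 nM Btk at [ATP]=Km, EDTA-quenched, 665/615 nm ratio; Ki(app) converted to IC50. Method B: 1 nM full-length His6 human BTK, 1 μM FAM peptide, pH 7.5, mobility-shift product/sum ratio, 12-point 4-parameter fit. Method C: radiometric filter binding, 8 nM His-tagged BTK, 0.2 mg/mL poly-Glu-Tyr.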
# TEC = biological target: T2, TEC (Homo sapiens, UniProt P42680); experiment: Inhibition of a panel of kinases (in vitro HotSpot kinase assay, 33P-ATP, 1 μM ATP); details: for IC50: HotSpot kinase assay, 1 μM ATP; for TEC/Btk: ratio of TEC IC50 to Btk IC50 (selectivity)
# T2 sequence (P42680 1-631): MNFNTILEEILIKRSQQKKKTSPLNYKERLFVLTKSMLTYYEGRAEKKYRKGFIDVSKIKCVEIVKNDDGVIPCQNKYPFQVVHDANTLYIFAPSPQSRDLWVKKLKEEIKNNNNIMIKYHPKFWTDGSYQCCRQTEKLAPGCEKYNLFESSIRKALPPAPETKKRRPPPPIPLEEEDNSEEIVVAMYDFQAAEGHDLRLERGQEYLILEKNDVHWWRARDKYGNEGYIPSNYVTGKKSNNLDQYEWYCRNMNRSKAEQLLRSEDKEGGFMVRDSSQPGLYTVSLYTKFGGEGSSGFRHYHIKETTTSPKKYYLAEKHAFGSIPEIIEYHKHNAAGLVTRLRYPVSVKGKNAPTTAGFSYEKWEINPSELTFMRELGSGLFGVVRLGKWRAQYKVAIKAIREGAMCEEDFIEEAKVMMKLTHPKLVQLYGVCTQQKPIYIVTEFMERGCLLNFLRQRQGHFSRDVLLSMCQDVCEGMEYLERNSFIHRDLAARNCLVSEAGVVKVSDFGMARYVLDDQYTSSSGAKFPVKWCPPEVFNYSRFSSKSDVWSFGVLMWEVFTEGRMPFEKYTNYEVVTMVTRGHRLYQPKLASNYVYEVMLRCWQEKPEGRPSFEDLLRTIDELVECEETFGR
# How it was run: (§1)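 Purified kinase enzymes were incubated with an appropriate substrate and 33P-labelled ATP at 1 μM ATP. Inhibition was measured radiometrically from incorporation of the 33P label.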
# panel of kinases = biological target: T3, panel of kinases (Homo sapiens, UniProt P51813); experiment: Inhibition of a panel of kinases (in vitro HotSpot kinase assay, 33P-ATP, 1 μM ATP), other kinases; details: BMX wild-type, read-out: BMX-WT IC50
# T3 sequence (P51813 1-675): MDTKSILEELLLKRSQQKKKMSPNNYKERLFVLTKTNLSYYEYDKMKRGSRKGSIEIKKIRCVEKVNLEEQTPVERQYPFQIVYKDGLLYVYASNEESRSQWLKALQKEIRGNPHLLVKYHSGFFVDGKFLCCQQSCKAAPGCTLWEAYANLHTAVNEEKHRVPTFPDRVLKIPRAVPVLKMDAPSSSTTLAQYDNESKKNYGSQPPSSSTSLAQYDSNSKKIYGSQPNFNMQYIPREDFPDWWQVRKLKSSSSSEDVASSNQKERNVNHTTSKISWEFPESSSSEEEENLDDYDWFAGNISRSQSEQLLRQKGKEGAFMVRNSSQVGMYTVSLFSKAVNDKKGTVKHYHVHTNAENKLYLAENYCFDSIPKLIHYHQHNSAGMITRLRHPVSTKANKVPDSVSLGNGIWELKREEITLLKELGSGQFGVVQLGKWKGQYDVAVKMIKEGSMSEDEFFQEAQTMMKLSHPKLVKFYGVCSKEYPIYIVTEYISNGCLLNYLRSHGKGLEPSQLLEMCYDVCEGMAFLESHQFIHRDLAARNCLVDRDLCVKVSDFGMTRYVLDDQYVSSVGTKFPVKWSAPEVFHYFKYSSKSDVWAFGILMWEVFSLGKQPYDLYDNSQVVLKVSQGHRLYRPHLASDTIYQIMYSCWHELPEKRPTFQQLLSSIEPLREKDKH
# How it was run: as §1
Structure (SMILES),IC50 (Btk),IC50 (TEC),TEC/Btk (TEC),IC50 (panel of kinases)
"C=CC(=O)N1CC[C@@H](Nc2n[nH]c3nccc(-c4cccc(-n5ccc6cc(C7CC7)cc(F)c6c5=O)c4COC(C)=O)c23)C1 [Compound 16, [2-(6-cyclopropyl-8-fluoro-1-oxo-1,2-dihydroisoquinolin-2-yl)-6-(3-{[(3R)-1-(prop-2-enoyl)pyrrolidin-3-yl]amino}-1H-pyrazolo[3,4-b]pyridin-4-yl)phenyl]methyl acetate]",> 10000 nM,3990 nM,,4050 nM
"O=c1c2c(F)cc(C3CC3)cc2ccn1-c1cccc(-c2ccnc3[nH]nc(N[C@@H]4CCNC4)c23)c1CO [Compound 17, (R)-6-cyclopropyl-8-fluoro-2-(2-(hydroxymethyl)-3-(3-(pyrrolidin-3-ylamino)-1H-pyrazolo[3,4-b]pyridin-4-yl)phenyl)isoquinolin-1 (2H)-one]",312 nM,5920 nM,19,6410 nM
"CC(C)(C)CCC(=O)NCc1ccc(-c2ccnc3[nH]nc(N[C@H]4CC[C@H](O)CC4)c23)cc1F [Compound 19, N-{[2-fluoro-4-(3-{[(1r,4r)-4-hydroxycyclohexyl]amino}-1H-pyrazolo[3,4-b]pyridin-4-yl)phenyl]methyl}-4,4-dimethylpentanamide]",> 10000 nM,> 10000 nM,,7460 nM
"CCn1cc(C(=O)NCc2ccc(-c3ccnc4[nH]nc(N[C@H]5CC[C@H](O)CC5)c34)cc2F)cn1 [Compound 20, 1-ethyl-N-{[2-fluoro-4-(3-{[(1r,4r)-4-hydroxycyclohexyl]amino}-1H-pyrazolo[3,4-b]pyridin-4-yl)phenyl]methyl}-1H-pyrazole-4-carboxamide]",> 10000 nM,> 10000 nM,,5280 nM
"CC(C)(C)c1ccc(C(=O)NC2(c3ccc(-c4ccnc5[nH]nc(N[C@H]6CC[C@H](O)CC6)c45)cc3)CC2)cc1 [Compound 22, 4-tert-butyl-N-{1-[4-(3-{[(1r,4r)-4-hydroxycyclohexyl]amino}-1H-pyrazolo[3,4-b]pyridin-4-yl)phenyl]cyclopropyl}benzamide]",> 10000 nM,> 10000 nM,,6470 nM
"CC(C)(C)c1ccc(C(=O)NCc2ccc(-c3ccnc4[nH]nc(N[C@H]5CC[C@H](O)CC5)c34)cc2)cc1 [Compound 23, 4-tert-butyl-N-{[4-(3-{[(1r,4r)-4-hydroxycyclohexyl]amino}-1H-pyrazolo[3,4-b]pyridin-4-yl)phenyl]methyl}benzamide]",> 10000 nM,> 10000 nM,,> 10000 nM
"CC1(C(=O)N2CC[C@@H](Nc3n[nH]c4nccc(-c5ccc(C6(NC(=O)c7noc(C(C)(C)C)n7)CC6)cc5)c34)C2)COC1 [Compound 30, (R)-5-(tert-butyl)-N-(1-(4-(3-((1-(3-methyloxetane-3-carbonyl)pyrrolidin-3-yl)amino)-1H-pyrazolo[3,4-b]pyridin-4-yl)phenyl)cyclopropyl)-1,2,4-oxadiazole-3-carboxamide]",254 nM,,39,6750 nM

# Now those with a lower IC50 (Btk), led by results:
IC50 (Btk),IC50 (TEC),TEC/Btk (TEC),IC50 (panel of kinases),Structure (SMILES)
144 nM,> 10000 nM,,> 10000 nM,"CC(C)(C)c1ccc(C(=O)NCc2ccc(-c3ccnc4[nH]nc(N[C@@H]5CCNC5)c34)cc2F)cc1 [Compound 8, 4-tert-butyl-N-{[2-fluoro-4-(3-{[(3R)-pyrrolidin-3-yl]amino}-1H-pyrazolo[3,4-b]pyridin-4-yl)phenyl]methyl}benzamide]"
53.4 nM,3170 nM,59,4370 nM,"CC(C)(C)c1nc(C(=O)NCc2ccc(-c3ccnc4[nH]nc(N[C@H]5CC[C@H](O)CC5)c34)cc2F)no1 [Compound 21, 5-tert-butyl-N-{[2-fluoro-4-(3-{[(1r,4r)-4-hydroxycyclohexyl]amino}-1H-pyrazolo[3,4-b]pyridin-4-yl)phenyl]methyl}-1,2,4-oxadiazole-3-carboxamide]"
52.7 nM,2590 nM,49,4350 nM,"CCC(=O)N1CC[C@@H](Nc2n[nH]c3nccc(-c4ccc(C5(NC(=O)c6noc(C(C)(C)C)n6)CC5)cc4)c23)C1 [Compound 5, (R)-5-(tert-butyl)-N-(1-(4-(3-((1-propionylpyrrolidin-3-yl)amino)-1H-pyrazolo[3,4-b]pyridin-4-yl)phenyl)cyclopropyl)-1,2,4-oxadiazole-3-carboxamide]"
13.1 nM,8350 nM,637,> 10000 nM,"CC#CC(=O)N1CC[C@@H](Nc2n[nH]c3nccc(-c4cccc(NC(=O)c5ccc(C(C)(C)C)cc5)c4C)c23)C1 [Compound 10, N-[3-(3-{[(3R)-1-(but-2-ynoyl)pyrrolidin-3-yl]amino}-1H-pyrazolo[3,4-b]pyridin-4-yl)-2-methylphenyl]-4-tert-butylbenzamide]"
11 nM,964 nM,88,595 nM,"CN(C)C/C=C/C(=O)N1CC[C@@H](Nc2n[nH]c3nccc(-c4ccc(C5(NC(=O)c6noc(C(C)(C)C)n6)CC5)cc4)c23)C1 [Compound 29, (R,E)-5-(tert-butyl)-N-(1-(4-(3-((1-(4-(dimethylamino)but-2-enoyl)pyrrolidin-3-yl)amino)-1H-pyrazolo[3,4-b]pyridin-4-yl)phenyl)cyclopropyl)-1,2,4-oxadiazole-3-carboxamide]"
3.62 nM,2460 nM,680,1910 nM,"C=CC(=O)N1CC[C@@H](Nc2n[nH]c3nccc(-c4cccc(NC(=O)c5ccc(C(C)(C)C)cc5)c4C)c23)C1 [Compound 9, 4-tert-butyl-N-[2-methyl-3-(3-{[(3R)-1-(prop-2-enoyl)pyrrolidin-3-yl]amino}-1H-pyrazolo[3,4-b]pyridin-4-yl)phenyl]benzamide]"
1.69 nM,40 nM,23,73 nM,"C=CC(=O)N1CC[C@@H](Nc2n[nH]c3nccc(-c4cccc(-n5ccc6cc(C7CC7)cc(F)c6c5=O)c4CO)c23)C1 [Compound 18, 6-cyclopropyl-8-fluoro-2-[2-(hydroxymethyl)-3-(3-{[(3R)-1-(prop-2-enoyl)pyrrolidin-3-yl]amino}-1H-pyrazolo[3,4-b]pyridin-4-yl)phenyl]-1,2-dihydroisoquinolin-1-one]"
1.65 nM,296 nM,179,274 nM,"CC#CC(=O)N1CC[C@@H](Nc2n[nH]c3nccc(-c4ccc(CNC(=O)c5ccc(C(C)(C)C)cc5)c(F)c4)c23)C1 [Compound 7, N-{[4-(3-{[(3R)-1-(but-2-ynoyl)pyrrolidin-3-yl]amino}-1H-pyrazolo[3,4-b]pyridin-4-yl)-2-fluorophenyl]methyl}-4-tert-butylbenzamide]"
0.62 nM,130 nM,210,182 nM,"C=CC(=O)N1CC[C@@H](Nc2n[nH]c3nccc(-c4ccc(CNC(=O)c5ccc(C(C)(C)C)cc5)c(F)c4)c23)C1 [Compound 6, 4-tert-butyl-N-{[2-fluoro-4-(3-{[(3R)-1-(prop-2-enoyl)pyrrolidin-3-yl]amino}-1H-pyrazolo[3,4-b]pyridin-4-yl)phenyl]methyl}benzamide]"
0.575 nM,200 nM,347,71 nM,"CC#CC(=O)N1CC[C@@H](Nc2n[nH]c3nccc(-c4ccc(C5(NC(=O)c6noc(C(C)(C)C)n6)CC5)cc4)c23)C1 [Compound 28, (R)—N-(1-(4-(3-((1-(but-2-ynoyl)pyrrolidin-3-yl)amino)-1H-pyrazolo[3,4-b]pyridin-4-yl)phenyl)cyclopropyl)-5-(tert-butyl)-1,2,4-oxadiazole-3-carboxamide]"
